Assay results published in US4314061A, “Certain 3,6-bis-(heteroaminoalkoxy) acridines” (priority 1980, dated 1982).
Counter-ions that a name gives are not always drawn.

Experiments:
[1] = tested on: Rauscher Virus-Induced Leukemia; test: Inhibition of splenomegaly in mice with Rauscher virus-induced leukemia; assay type: in vivo, Balb/c mice; conditions: for reduction in splenomegaly: general statement, no dose, relative to placebo treated RLV-infected mice
[2] = tested on: Rauscher Virus-Induced Leukemia; test: Restoration of antibody formation in mice with Rauscher virus-induced leukemia; assay type: in vivo, Balb/c mice
Columbia SK virus [3] = test: Antiviral effects against an interferon-sensitive virus, Columbia SK; assay type: in vivo, Taconic Farms male, white mice; conditions: 400 mg/kg oral, 18 hours before infection; 14 days post injection
Experimental: Taconic Farms male, white mice, weighing 18-24 g were treated by gavage, 18 hours before infection with a test compound suspended or dissolved in 1.0 ml of 0.2% aqueous agar solution. The mice were then infected by subcutaneous injection with one LD95 of Columbia SK virus in 0.2 ml of distilled water. Groups of infected, untreated mice were used as controls to show the lethality of the infection. The test duration was 14 days.

B16 melanoma = test: Distribution of metastatic foci in lungs of mice inoculated subcutaneously with B16 melanoma; assay type: in vivo, BDF1 mice; conditions: for No. of mice with 0 lung foci/mouse / No. of mice with 1-5 lung foci/mouse / No. of mice with 6-10 lung foci/mouse / No. of mice with 11-15 lung foci/mouse / No. of mice with >15 lung foci/mouse: day 25
Experimental: BDF1 male mice inoculated subcutaneously with 0.25 ml of a 10% tumor
homogenate on day 0. Drugs administered intraperitoneally days 1,5,9 and
13; mice sacrificed on day 25, 10 mice per group. Distribution of […]

[4] = tested on: natural killer lymphocytes (NK cells); test: Stimulation of NK-cell activity in normal mice; conditions: 10 mg/kg intraperitoneal
Columbia SK virus [5] = test: Protection of mice against lethal Columbia SK virus infection by oral pre-treatment; assay type: in vivo, random-bred Swiss male mice; conditions: 200 mg/kg oral
Experimental: At 24, 48, 72 and 96 hours after drug treatment, separate groups of mice were injected SC with an LD95 dose of the interferon sensitive virus, Columbia SK. […] Typically, protection from lethal infection with Columbia SK virus is associated with induction of interferon.

Cl.Cl.Cl.c1cc2cc3ccc(OCCN4CCCCC4)cc3nc2cc1OCCN1CCCCC1 [3,6-bis(2-piperidinoethoxy)acridine trihydrochloride]
% Reduction in splenomegaly ([1]; 100 mg/kg): 84%
Serum hemagglutinin titer/saline control titer ([2]; 100 mg/kg oral): 256/16
Survivors/Total (Columbia SK virus [3]): 12/15

CC(C)NCCOc1ccc2cc3ccc(OCCNC(C)C)cc3nc2c1.Cl.Cl.Cl [3,6-bis(2-isopropylaminoethoxy)acridine trihydrochloride]
% Reduction in splenomegaly ([1]; 200 mg/kg): 96%
Serum hemagglutinin titer/saline control titer ([2]; 100 mg/kg oral): 512/32
Survivors/Total (Columbia SK virus [3]): 15/15

CCN(CC)C(C)COc1ccc2cc3ccc(OCC(C)N(CC)CC)cc3nc2c1.Cl.Cl.Cl (centres unmarked) [3,6-Bis(2-diethylaminopropoxy)acridine . 3HCl]
Survivors/Total (Columbia SK virus [3]): 13/15

CN(C)CCOc1ccc2cc3ccc(OCCN(C)C)cc3nc2c1.Cl.Cl.Cl [3,6-bis(2-dimethylaminoethoxy)acridine trihydrochloride]
No. of mice with 0 lung foci/mouse (B16 melanoma; 6.5 mg/kg i.p.): 0
No. of mice with 1-5 lung foci/mouse (B16 melanoma; 6.5 mg/kg i.p.): 3
No. of mice with 6-10 lung foci/mouse (B16 melanoma; 6.5 mg/kg i.p.): 3
No. of mice with 11-15 lung foci/mouse (B16 melanoma; 6.5 mg/kg i.p.): 1
No. of mice with >15 lung foci/mouse (B16 melanoma; 6.5 mg/kg i.p.): 1
No. of mice with 0 lung foci/mouse (B16 melanoma; 12.5 mg/kg i.p.): 1
No. of mice with 1-5 lung foci/mouse (B16 melanoma; 12.5 mg/kg i.p.): 5
No. of mice with 6-10 lung foci/mouse (B16 melanoma; 12.5 mg/kg i.p.): 1
No. of mice with 11-15 lung foci/mouse (B16 melanoma; 12.5 mg/kg i.p.): 1
No. of mice with >15 lung foci/mouse (B16 melanoma; 12.5 mg/kg i.p.): 1
No. of mice with 0 lung foci/mouse (B16 melanoma; 25 mg/kg i.p.): 2
No. of mice with 1-5 lung foci/mouse (B16 melanoma; 25 mg/kg i.p.): 4
No. of mice with 6-10 lung foci/mouse (B16 melanoma; 25 mg/kg i.p.): 2
No. of mice with 11-15 lung foci/mouse (B16 melanoma; 25 mg/kg i.p.): 1
No. of mice with >15 lung foci/mouse (B16 melanoma; 25 mg/kg i.p.): 0
No. of mice with 0 lung foci/mouse (B16 melanoma; 50 mg/kg i.p.): 1
No. of mice with 1-5 lung foci/mouse (B16 melanoma; 50 mg/kg i.p.): 1
No. of mice with 6-10 lung foci/mouse (B16 melanoma; 50 mg/kg i.p.): 4
No. of mice with 11-15 lung foci/mouse (B16 melanoma; 50 mg/kg i.p.): 0
No. of mice with >15 lung foci/mouse (B16 melanoma; 50 mg/kg i.p.): 0
No. of mice with 0 lung foci/mouse (B16 melanoma; 100 mg/kg i.p.): 3
No. of mice with 1-5 lung foci/mouse (B16 melanoma; 100 mg/kg i.p.): 7
No. of mice with 6-10 lung foci/mouse (B16 melanoma; 100 mg/kg i.p.): 0
No. of mice with 11-15 lung foci/mouse (B16 melanoma; 100 mg/kg i.p.): 0
No. of mice with >15 lung foci/mouse (B16 melanoma; 100 mg/kg i.p.): 0
Mortality (in place of lung foci count) (B16 melanoma; 200 mg/kg i.p. days 1,5,9,13): All mice dead

polyinosinic acid:polycytidylic acid [Poly I:C, reference compound]
Serum hemagglutinin titer/saline control titer ([2]; 10 mg/kg IP): 1024/32
% Cytotoxicity ([4]; Test 1 (CD1 mice), * p <.05): 24.7%
% Cytotoxicity ([4]; Test 2 (BDF1 hybrids)): 36.1%

c1cc2cc3ccc(OCCCN4CCCCC4)cc3nc2cc1OCCCN1CCCCC1 [3,6-bis[3-(1-piperidino)propoxy]acridine trihydrochloride]
% Reduction in splenomegaly ([1]; 50 mg/kg): 74%
Serum hemagglutinin titer/saline control titer ([2]; 50 mg/kg oral): 1024/32
Survivors/Total (Columbia SK virus [3]): 12/15

O=c1[nH]cc(F)c(=O)[nH]1 [5-fluorouracil, reference compound]
No. of mice with 0 lung foci/mouse (B16 melanoma; 20 mg/kg i.p.): 1
No. of mice with 1-5 lung foci/mouse (B16 melanoma; 20 mg/kg i.p.): 2
No. of mice with 6-10 lung foci/mouse (B16 melanoma; 20 mg/kg i.p.): 1
No. of mice with 11-15 lung foci/mouse (B16 melanoma; 20 mg/kg i.p.): 2
No. of mice with >15 lung foci/mouse (B16 melanoma; 20 mg/kg i.p.): 1
No. of mice with 0 lung foci/mouse (B16 melanoma; 25 mg/kg i.p.): 3
No. of mice with 1-5 lung foci/mouse (B16 melanoma; 25 mg/kg i.p.): 3
No. of mice with 6-10 lung foci/mouse (B16 melanoma; 25 mg/kg i.p.): 1
No. of mice with 11-15 lung foci/mouse (B16 melanoma; 25 mg/kg i.p.): 1
No. of mice with >15 lung foci/mouse (B16 melanoma; 25 mg/kg i.p.): 1
No. of mice with 0 lung foci/mouse (B16 melanoma; 30 mg/kg i.p.): 3
No. of mice with 1-5 lung foci/mouse (B16 melanoma; 30 mg/kg i.p.): 3
No. of mice with 6-10 lung foci/mouse (B16 melanoma; 30 mg/kg i.p.): 3
No. of mice with 11-15 lung foci/mouse (B16 melanoma; 30 mg/kg i.p.): 0
No. of mice with >15 lung foci/mouse (B16 melanoma; 30 mg/kg i.p.): 0
No. of mice with 0 lung foci/mouse (B16 melanoma; 40 mg/kg i.p.): 2
No. of mice with 1-5 lung foci/mouse (B16 melanoma; 40 mg/kg i.p.): 5
No. of mice with 6-10 lung foci/mouse (B16 melanoma; 40 mg/kg i.p.): 4
No. of mice with 11-15 lung foci/mouse (B16 melanoma; 40 mg/kg i.p.): 0
No. of mice with >15 lung foci/mouse (B16 melanoma; 40 mg/kg i.p.): 0
No. of mice with 0 lung foci/mouse (B16 melanoma; 50 mg/kg i.p.): 2
No. of mice with 1-5 lung foci/mouse (B16 melanoma; 50 mg/kg i.p.): 4
No. of mice with 6-10 lung foci/mouse (B16 melanoma; 50 mg/kg i.p.): 3
No. of mice with 11-15 lung foci/mouse (B16 melanoma; 50 mg/kg i.p.): 0
No. of mice with >15 lung foci/mouse (B16 melanoma; 50 mg/kg i.p.): 0
% Reduction in splenomegaly ([1]; 50 mg/kg): 115%
reduction in splenomegaly [1]: ≥ 50%

CCN(CC)CCOc1ccc2c(c1)C(=O)c1cc(OCCN(CC)CC)ccc1-2 [Tilorone, tilorone hydrochloride, reference compound]
Survivors/Total (14 Days) (Columbia SK virus [5]; -24 hr relative to virus challenge, * p <.01): 18/20
Survivors/Total (14 Days) (Columbia SK virus [5]; -48 hr relative to virus challenge, * p <.01): 15/20
Survivors/Total (14 Days) (Columbia SK virus [5]; -72 hr relative to virus challenge, * p <.01): 9/20
Survivors/Total (14 Days) (Columbia SK virus [5]; -96 hr relative to virus challenge): 8/20

CCN(CC)CCOc1ccc2cc3ccc(OCCN(CC)CC)c([N+](=O)[O-])c3nc2c1[N+](=O)[O-] [3,6-bis(2-diethylaminoethoxy)-4,5-dinitroacridine]
% Reduction in splenomegaly ([1]; 100 mg/kg): 108%

CCNCCOc1ccc2cc3ccc(OCCNCC)cc3nc2c1.Cl.Cl.Cl [3,6-Bis(2-ethylaminoethoxy)acridine trihydrochloride]
% Reduction in splenomegaly ([1]; 100 mg/kg): 89%
Survivors/Total (Columbia SK virus [3]): 10/15

Sc1ncnc2nc[nH]c12 [6-Mercaptopurine, 6-mercaptopurine, reference compound]
% Reduction in splenomegaly ([1]; 100 mg/kg): 113%
reduction in splenomegaly [1]: ≥ 50%

CN(Cc1cnc2nc(N)nc(N)c2n1)c1ccc(C(=O)N[C@@H](CCC(=O)O)C(=O)O)cc1 [Methotrexate, reference compound]
% Reduction in splenomegaly ([1]; 4 mg/kg): 59%
reduction in splenomegaly [1]: ≥ 50%

CCN(CC)CCOc1ccc2cc3ccc(OCCN(CC)CC)c(Cl)c3nc2c1Cl [3,6-bis(2-diethylaminoethoxy)-4,5-dichloroacridine]
% Reduction in splenomegaly ([1]; 50 mg/kg): 86%
Serum hemagglutinin titer/saline control titer ([2]; 100 mg/kg oral): 128/16
Survivors/Total (Columbia SK virus [3]): 7/15
